The values that follow come from PMC11343806 (Journal of Biological Inorganic Chemistry, 2024).

Some results are limits rather than exact numbers.

Data set [1] relates to Enterococcus faecium (DSM 20477, ATCC 19434). Put plainly: MIC broth dilution, aerobic bacteria. In kind it is cell-based. The conditions noted are these: 20 h at 37 °C, ± standard error, n ≥ 3. How it is done: (§1) The following strains were used and maintained at 37 °C in MHB (21 g/L Müller Hinton, pH 7.4) or TSY (30 g/L trypticase soy broth, 3 g/L yeast extract, pH 7.0–7.2) medium. Acinetobacter baumannii (DSM 30007, ATCC 19606) in MHB, Escherichia coli (DSM1116, ATCC 9637) in TSY, Klebsiella pneumoniae (DSM 11678, ATCC33495) in MHB, Pseudomonas aeruginosa PA7 (DSM 24068) in MHB, Enterococcus faecium (DSM 20477, ATCC 19434) in TSY, Staphylococcus aureus MRSA (DSM 11822, ICB 25701) in TSY). Minimum inhibitory concentration (MIC) values were determined following a standardized protocol in broth dilution assays. […] Starting inocula of 2–8 × 10^5 colony-forming units per ml in MHB or TSY media at 37 °C were used, and serial dilutions were carried out in 384-well microtiter plates in duplicate. […] The MIC values for the tested compounds were determined in three independent experiments by a curve-fitting procedure using the GraphPad Prism software (Graphpad Software, Inc.).

Data set [2] relates to Acinetobacter baumannii (DSM 30007, ATCC 19606). Put plainly: MIC broth dilution, aerobic bacteria. Format: cell-based. The conditions noted are these: 20 h at 37 °C, ± standard error, n ≥ 3. Here is the method:
as §1
Background: Broth dilution looks for growth in wells or tubes with falling amounts of substance.

The test system of data set [3] is Klebsiella pneumoniae (DSM 11678, ATCC33495). Description: MIC broth dilution, aerobic bacteria. In kind it is cell-based. The following applies: 20 h at 37 °C, ± standard error, n ≥ 3, read-out: MIC, K. pneumoniae. Here is the method: as §1
Data set [4] relates to Staphylococcus aureus MRSA (DSM 11822, ICB 25701). Description: MIC broth dilution, aerobic bacteria. The conditions noted are these: 20 h at 37 °C, ± standard error, n ≥ 3. In kind it is cell-based. Here is the method: as §1
The test system of data set [5] is Escherichia coli (DSM1116, ATCC 9637). Description: MIC broth dilution, aerobic bacteria. The conditions noted are these: 20 h at 37 °C, ± standard error, n ≥ 3. Format: cell-based. Here is the method:
as §1

Data set [6] concerns Pseudomonas aeruginosa PA7 (DSM 24068). Description: MIC broth dilution, aerobic bacteria. The conditions noted are these: 20 h at 37 °C, ± standard error, n ≥ 3, read-out: MIC, P.aeruginosa. In kind it is cell-based. How it is done: as §1
Data set [7] has as its system HT-29 colon carcinoma cells. Description: Antiproliferative assay (crystal violet). In kind it is cell-based, human. The conditions noted are these: 72 h exposure; ± standard deviation, n = 2–4; read-out: IC50, antiproliferative effects, HT-29. How it is done:
(§2) The antiproliferative effects were determined according to a previously published procedure. A volume of 100 µL of cell suspension of A549 cells, MDA-MB-231, HT-29 or Vero E6 cells was transferred into the wells of a 96-well plates and incubated at 37 °C under 5% CO2 for 72 h. […] The results were calculated as the mean values of three independent experiments, unless stated otherwise.

Data set [8] concerns A-549 lung cancer cells. Put plainly: Antiproliferative assay (crystal violet). Format: cell-based, human. The following applies: 72 h exposure; ± standard deviation, n = 2–4; read-out: IC50, antiproliferative effects, A-549. How it is done:
as §2

For data set [9], the system named is MDA-MB-231 breast cancer cells. Description: Antiproliferative assay (crystal violet). Format: cell-based, human. The conditions noted are these: 96 h exposure; ± standard deviation, n = 2–4; read-out: IC50, antiproliferative effects, MDA-MB-231. How it is done: as §2
Data set [10] relates to A-549, HT-29, MDA-MB-231 and Vero E6 cells. Description: Antiproliferative assay, summary over all cell lines. In kind it is cell-based. The following applies: all four cell lines; for 2c except MDA-MB-231; read-out: IC50 values, antiproliferative effects, all cell lines. How it is done: as §2
A short description of data set [11]: Solubility observations.
The target of data set [12] is T1, bacterial TrxR from E. coli (Escherichia coli, UniProt P0A9P4).
T1 construct: purchased Sigma-Aldrich
Put plainly: Inhibition of bacterial TrxR (E. coli), DTNB/5-TNB assay. Format: biochemical. The conditions noted are these: purified enzyme, 75 min incubation at 25 °C; means and standard deviations. Here is the method:
The TrxR (E.coli) inhibition assay was performed according to a previously published procedure. It is partly based on the procedure developed by Lu et al.[35] and detects the formation of 5-TNB (5-thionitrobenzoic acid). Solutions of E. coli TrxR (35.4 U/mL) and of its substrate thioredoxin (Trx) E. coli (156 µg/mL) (both purchased from Sigma-Aldrich and diluted with distilled water) and fresh stock solutions of the test compounds (in DMF) were prepared (1c was administered as suspension). TE buffer (Tris–HCl 50 mM, EDTA 1 mM, pH 7.5) containing graded concentrations of the respective compounds (20 µL) or buffer without compounds (20 µL, as control) were mixed with TrxR solution (10 µL), Trx solution (10 µL), and a solution of NADPH (200 µM) in TE buffer (100 µL) in a well on a 96-well plate. As blank solution, 200 µM NADPH in TE buffer (100 µL) mixed with a DMF/buffer mixture (40 µL) was used (final concentrations of DMF: 0.5% v/v). The solutions on the 96-well plate were incubated for 75 min at 25 °C with moderate shaking. A volume of 100 µL of a reaction mixture (TE buffer containing 200 µM NADPH and 5 mM DTNB) was added to each well to initiate the reaction. After thorough mixing, the formation of 5-TNB was monitored by a microplate reader at 405 nm in 35 s intervals (10 measurements). The values were corrected by subtraction of the values for the blank solution. The increase in concentration of 5-TNB followed a linear trend (r^2 ≥ 0.990) and the enzymatic activities were calculated as the gradients (increase in absorbance per second) thereof. Absence of interference with the assay components was confirmed by a negative control experiment for each test compound. The highest test compound concentration was used and the enzyme solution was replaced by TE buffer for this purpose. The IC50 values were calculated as the concentration of the compound decreasing the enzymatic activity of the positive control by 50% and are presented as the means and standard deviations of independent repeated experiments.

For data set [13], the system named is aerobic Gram-positive and Gram-negative pathogenic bacteria strains. Put plainly: MIC, summary over the panel of aerobic bacteria. Format: cell-based. The following applies: for MIC values against Gram-positive strains: MRSA and E. faecium, except for 1c in MRSA; for activity against Gram-negative strains (in words): aerobic conditions. Here is the method:
as §1

For data set [14], the system named is Vero E6 non-tumorigenic epithelial kidney cells. Description: Antiproliferative assay (crystal violet). The following applies: 72 h exposure; ± standard deviation, n = 2–4; read-out: IC50, antiproliferative effects, Vero E6. In kind it is cell-based, African green monkey. Here is the method: as §2
The subject of data set [15] is C. difficile strain IB136 (NCTC 14385), metronidazole-resistant. Description: Antibacterial effects against C. difficile (anaerobic growth curves, OD600). In kind it is cell-based, Clostridioides difficile. Here is the method: (§3) (provided by Ulrich Nübel, DSMZ Braunschweig) were maintained in prereduced BHIS medium (37 g/L BHI, oxoid, 5% yeast extract, 1% L-cysteine) in a Coy-Laboratories anaerobic chamber (85% N2, 10% CO2, 5% H2) at 37 °C. Freshly prepared cultures were incubated until the exponential growth phase (OD600 = 0.2–0.4) and were adjusted to 1 × 10^6 cfu/mL before inoculation. The test compounds were dissolved in DMSO and by two-fold dilution steps concentrations in the range from 200 µM to 0.39 µM in BIHS medium were obtained. The solutions (100µL) were added to 100 µL of a diluted C. difficile culture (total volume: 200 µL in BIHS, 5 × 10^5 C. difficile, 100–0.195 µM test compound per well). The OD600-values over a period of 48 h were measured with a LogPhase 600 4-plate reader (BioTek) and compared with blank BHIS.

For data set [16], the system named is C. difficile strain VPI10463 (ATCC 43255), metronidazole-sensitive. The data set is described as above. Format: cell-based, Clostridioides difficile. How it is done: as §3
Data set [17] concerns C. difficile strain 1296^ T (DSM 1296), metronidazole-sensitive. The data set is described as above. Format: cell-based, Clostridioides difficile. The following applies: strain 1296T. How it is done: as §3

T1 sequence (P0A9P4 whole entry): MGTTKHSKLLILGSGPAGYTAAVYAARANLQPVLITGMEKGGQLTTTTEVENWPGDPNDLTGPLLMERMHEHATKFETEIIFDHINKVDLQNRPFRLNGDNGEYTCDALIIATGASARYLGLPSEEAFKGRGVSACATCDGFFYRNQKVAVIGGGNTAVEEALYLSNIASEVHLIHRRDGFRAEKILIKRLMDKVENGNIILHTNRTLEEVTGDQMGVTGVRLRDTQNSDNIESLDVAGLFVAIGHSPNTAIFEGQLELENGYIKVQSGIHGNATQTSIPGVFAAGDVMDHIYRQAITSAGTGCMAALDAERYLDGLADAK

As to `CCn1[c](=[Au][Cl])n(CC)c2cc(C(=O)OCCn3c([N+](=O)[O-])cnc3C)ccc21` [Compound 1c, Chlorido-(1,3-diethyl-5-((2-(2-methyl-5-nitroimidazol-1-yl)ethoxy)carbonyl)benzimidazol-2-ylidene)gold(I)], the “MIC, E. faecium” value in data set [1] was 44.2 ± 15.3 µM. For the same compound, the minimum inhibitory concentration (MIC) in data set [2], in data set [3], in [5] and in data set [6] was more than 106.0 µM each time. Besides, in [4], the “MIC, MRSA” value was 106.0 ± 0.0 µM. Moreover, the IC50 (commonly the concentration at which inhibition is half-maximal) is more than 100 µM in data set [7]; more than 100 µM in data set [8]; more than 100 µM in data set [9]; more than 60 µM in data set [10]; 0.145 ± 0.038 µM in data set [12]; more than 100 µM in data set [14]. In [11], the “solubility in organic solvents” value is “limited solubility in organic solvents”. Besides, in data set [13], the “MIC values against Gram-positive strains” value lay within 37 to 44 µM. The “activity against Gram-negative strains (in words)” value in [13] was “inactive”.
Consider `Cc1ncc([N+](=O)[O-])n1CCOC(=O)Cn1[c](=[Au][Cl])n(C)c2ccccc21` [Compound 2c, Chlorido-(1-methyl-3-(2-(2-(2-methyl-5-nitroimidazol-1-yl)ethoxy)-2-oxoethyl)-benzimidazol-2-yliden)gold(I)], for which, in [1], the “MIC, E. faecium” value was found to be 43.3 ± 16.0 µM. The MIC in data set [2], in [3] and in [6] was more than 111.2 µM in each case. The “MIC, MRSA” value in data set [4] turned out to be 37.1 ± 16.0 µM. Besides, the half-maximal inhibitory concentration (IC50) was 80.7 ± 5.9 µM in [7]; 81.9 ± 2.8 µM in data set [8]; 31.8 ± 4.1 µM in [9]; more than 60 µM in data set [10]; 0.175 ± 0.017 µM in data set [12]; more than 95 µM in data set [14]. Also, the “concentration leading to a complete block of bacterial growth without recovery” value in data set [15] (metronidazole-resistant strain IB136, up to 100 µM, 48 h) is “blocked bacterial growth at the same concentration”; in data set [16] (strain VPI10463, up to 100 µM, 48 h), “blocked bacterial growth at the same concentration”; in data set [17] (up to 100 µM, 48 h), “blocked bacterial growth at the same concentration”. In addition, the “antibacterial effect at 6.25 µM” value in data set [15] (resistant strain IB136, 6.25 µM) is reported as “strong effects with recovery of bacterial proliferation”; in [16] (strain VPI10463, 6.25 µM, recovery of growth after extended exposure) it was “effective inhibitors”; in [17] (6.25 µM, recovery of growth after extended exposure), “effective inhibitors”. In addition, in [11], the “solubility in organic solvents” value was “soluble in most organic solvents”. The “MIC values against Gram-positive strains” value in data set [13] lay within 37 to 44 µM. Also, the “activity against Gram-negative strains (in words)” value in [13] is “inactive”.
